{"source": "patent US20260109690A1", "about": "“HDAC6 INHIBITORS AND METHOD OF THEIR USE” (Baerenkraft Therapeutics, LLC., priority 2024, published 2026)", "key": {"HDAC2": {"molecular_target": "HDAC2 (Homo sapiens, UniProt Q92769)", "sequence (Q92769 whole entry, species assumed)": "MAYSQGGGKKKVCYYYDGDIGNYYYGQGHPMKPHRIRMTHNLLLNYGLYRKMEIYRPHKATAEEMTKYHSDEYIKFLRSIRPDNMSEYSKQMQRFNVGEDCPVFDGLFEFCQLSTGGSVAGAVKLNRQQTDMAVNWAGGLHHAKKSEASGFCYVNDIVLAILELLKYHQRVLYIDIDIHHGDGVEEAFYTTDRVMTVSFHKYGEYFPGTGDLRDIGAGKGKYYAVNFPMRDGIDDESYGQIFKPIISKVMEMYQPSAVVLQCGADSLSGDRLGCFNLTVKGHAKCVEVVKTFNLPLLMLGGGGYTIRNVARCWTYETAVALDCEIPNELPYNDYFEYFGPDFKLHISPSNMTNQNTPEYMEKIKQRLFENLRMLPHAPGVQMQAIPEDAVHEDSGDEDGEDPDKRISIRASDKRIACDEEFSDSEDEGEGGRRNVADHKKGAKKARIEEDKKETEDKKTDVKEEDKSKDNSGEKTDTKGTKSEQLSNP", "assay": "HDAC selectivity panel: HDAC2", "assay_type": "biochemical"}, "HDAC1": {"molecular_target": "HDAC1 (Homo sapiens, UniProt Q13547)", "sequence (Q13547 whole entry, species assumed)": "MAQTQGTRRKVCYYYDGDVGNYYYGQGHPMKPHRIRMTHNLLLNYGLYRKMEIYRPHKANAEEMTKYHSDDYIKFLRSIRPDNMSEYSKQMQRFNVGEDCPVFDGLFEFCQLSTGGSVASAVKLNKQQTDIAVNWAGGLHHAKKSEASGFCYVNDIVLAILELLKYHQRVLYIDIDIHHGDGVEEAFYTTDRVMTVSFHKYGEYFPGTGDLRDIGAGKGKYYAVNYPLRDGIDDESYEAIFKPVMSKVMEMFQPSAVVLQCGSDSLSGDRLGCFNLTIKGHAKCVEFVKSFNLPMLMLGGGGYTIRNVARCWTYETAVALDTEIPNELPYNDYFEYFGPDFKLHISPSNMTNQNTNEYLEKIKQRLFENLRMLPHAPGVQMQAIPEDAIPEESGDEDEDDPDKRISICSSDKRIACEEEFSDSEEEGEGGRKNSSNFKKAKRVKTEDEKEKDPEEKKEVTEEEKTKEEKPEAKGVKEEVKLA", "assay": "HDAC selectivity panel: HDAC1", "assay_type": "biochemical"}, "HDAC5": {"molecular_target": "HDAC5 (Homo sapiens, UniProt Q9UQL6)", "sequence (Q9UQL6 whole entry, species assumed)": "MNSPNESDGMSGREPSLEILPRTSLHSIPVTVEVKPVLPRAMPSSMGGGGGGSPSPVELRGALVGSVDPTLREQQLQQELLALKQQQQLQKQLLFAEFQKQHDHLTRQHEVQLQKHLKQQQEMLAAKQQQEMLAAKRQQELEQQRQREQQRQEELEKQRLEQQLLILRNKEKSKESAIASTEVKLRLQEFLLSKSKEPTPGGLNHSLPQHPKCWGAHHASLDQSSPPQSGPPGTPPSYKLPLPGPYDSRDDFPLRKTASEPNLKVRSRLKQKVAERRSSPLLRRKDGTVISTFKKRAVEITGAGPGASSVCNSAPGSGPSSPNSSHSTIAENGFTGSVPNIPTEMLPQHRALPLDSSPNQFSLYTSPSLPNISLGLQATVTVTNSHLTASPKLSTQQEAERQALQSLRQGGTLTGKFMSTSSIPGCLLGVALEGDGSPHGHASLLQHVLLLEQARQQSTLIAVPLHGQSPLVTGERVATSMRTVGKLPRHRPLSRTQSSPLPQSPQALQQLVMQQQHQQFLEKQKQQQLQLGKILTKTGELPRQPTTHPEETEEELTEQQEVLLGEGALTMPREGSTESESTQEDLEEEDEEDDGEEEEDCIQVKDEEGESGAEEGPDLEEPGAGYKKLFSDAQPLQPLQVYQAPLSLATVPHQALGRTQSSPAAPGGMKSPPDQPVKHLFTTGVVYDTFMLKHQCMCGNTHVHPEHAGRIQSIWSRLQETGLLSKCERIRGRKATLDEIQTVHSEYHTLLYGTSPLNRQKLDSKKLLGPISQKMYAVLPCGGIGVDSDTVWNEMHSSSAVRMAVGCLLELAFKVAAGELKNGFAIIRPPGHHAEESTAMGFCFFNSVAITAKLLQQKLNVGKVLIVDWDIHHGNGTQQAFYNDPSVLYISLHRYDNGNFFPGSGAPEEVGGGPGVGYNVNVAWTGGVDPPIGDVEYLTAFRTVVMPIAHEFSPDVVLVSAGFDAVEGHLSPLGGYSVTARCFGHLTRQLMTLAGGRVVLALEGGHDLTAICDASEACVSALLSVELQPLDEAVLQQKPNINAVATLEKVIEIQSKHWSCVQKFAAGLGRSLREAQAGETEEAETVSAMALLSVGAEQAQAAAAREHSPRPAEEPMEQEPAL", "assay": "HDAC selectivity panel: HDAC5", "assay_type": "biochemical"}, "HDAC11": {"molecular_target": "T1, HDAC11 (Homo sapiens, UniProt Q96DB2)", "T1 sequence (Q96DB2 1-347)": "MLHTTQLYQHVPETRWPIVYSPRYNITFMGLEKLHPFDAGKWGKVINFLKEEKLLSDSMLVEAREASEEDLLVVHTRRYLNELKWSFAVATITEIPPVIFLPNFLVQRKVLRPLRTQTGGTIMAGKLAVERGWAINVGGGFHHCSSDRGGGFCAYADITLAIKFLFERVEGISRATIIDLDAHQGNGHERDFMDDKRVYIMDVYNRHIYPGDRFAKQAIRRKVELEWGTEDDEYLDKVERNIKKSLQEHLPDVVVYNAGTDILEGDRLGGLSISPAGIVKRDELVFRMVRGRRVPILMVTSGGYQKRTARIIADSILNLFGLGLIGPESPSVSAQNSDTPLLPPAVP", "assay": "HDAC selectivity panel: HDAC11", "assay_type": "biochemical"}, "HDAC3": {"molecular_target": "HDAC3 (Homo sapiens, UniProt O15379)", "sequence (O15379 whole entry, species assumed)": "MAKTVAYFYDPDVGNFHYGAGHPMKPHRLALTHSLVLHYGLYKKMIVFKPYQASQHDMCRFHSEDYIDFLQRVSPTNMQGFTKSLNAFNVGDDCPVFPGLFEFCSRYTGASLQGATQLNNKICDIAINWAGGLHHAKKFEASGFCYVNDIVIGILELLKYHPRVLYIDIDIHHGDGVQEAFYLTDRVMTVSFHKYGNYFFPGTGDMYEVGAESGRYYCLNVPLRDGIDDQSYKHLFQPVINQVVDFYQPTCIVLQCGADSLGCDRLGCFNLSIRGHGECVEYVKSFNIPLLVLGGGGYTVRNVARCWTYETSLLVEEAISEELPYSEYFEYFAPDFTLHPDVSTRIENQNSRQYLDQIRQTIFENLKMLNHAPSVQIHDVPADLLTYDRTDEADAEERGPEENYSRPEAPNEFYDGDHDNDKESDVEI", "sequence (Q9Y618 395-489 partner limits assumed, species assumed)": "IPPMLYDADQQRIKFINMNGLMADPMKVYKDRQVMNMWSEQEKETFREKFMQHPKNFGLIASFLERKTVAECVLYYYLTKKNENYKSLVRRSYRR", "assay": "HDAC selectivity panel: HDAC3", "assay_type": "biochemical"}, "[1]": {"assay": "ALS mouse model: clinical signs & mortality", "assay_type": "in vivo", "conditions": "G4 30 mg/kg (50 mg/kg from day 34) p.o. QD; SOD1-G93A mice", "procedure": "Male mice and age-matched control mice were procured. All animals were quarantine for 7 days and acclimatized for one day prior to experiment initiation. During this period, the animals were observed daily for clinical signs.\nMice were weighed and randomized into different groups and age matched control groups were kept as such. Test compound I-8 was freshly formulated and administered to the respective animals of each group as per body weight. Animals in G1 and G2 were administered with vehicle. G3 and G4 group animals were dosed with compound I-8 at the dose of 15 mg/kg and 30 mg/kg respectively, per orally; Q.D. G4 animals were administered 30 mg/kg dose until day 34 and 50 mg/kg from day 35 onwards.\nCage-side observations were made to detect any changes and general activity of the animals. After dose administration, all the animals were observed carefully for treatment related clinical signs, including morbidity and mortality."}, "[2]": {"test_system": "B6SJL.SOD1-G93A transgenic mouse model of amyotrophic lateral sclerosis", "assay": "ALS mouse model: rotarod test", "assay_type": "in vivo, mice", "procedure": "The Rotarod test was used for motor coordination assessment in mice. Animals were accustomed to the rotarod at 10 rpm for 300 s followed by training for 2 days at accelerated rpm (4-40 for 300 s) with 15 minutes inter trial interval. On the day of the test, animals were subjected to rotarod test at 4-40 rpm for 300 s with 15 minutes inter trial interval. During the training and test, the latency to fall off the rod was recorded. A total of 3 trials were recorded, data was averaged and analyzed.\nNote: Behavioral tests were performed once in two weeks, i.e. at week 10, 12, 14 and 16."}, "[3]": {"test_system": "acetyl-α-tubulin in SH-SY5Y neuroblastoma cells", "assay": "Western blot of acetylated alpha-tubulin in SH-SY5Y neuroblastoma cells", "assay_type": "cell-based", "conditions": "1 μM and 10 μM, 24 hours", "procedure": "SH-SY5Y neuroblastoma cells were seeded at 1,000,000 cells/well of three 6-well plates and incubated for 24 hours. Cells were treated with 2 control and experimental HDAC6 inhibitors at 1 μM and 10 μM for 24-hours. Following treatment, cells were lysed, and proteins extracted for western blot. Proteins were separated by gel electrophoresis and transferred to nitrocellulose membranes. Membranes were blocked and probed with primary Abs overnight.\nacetyl-α-tubulin (Lys40)(D20G3); Cell Signaling Technologies, #5335S\nGAPDH; Millipore Sigma, #MAB374\nMembranes were probed with secondary Abs for 1 hour and then the blots were imaged using the iBright 1500 (ThermoFisher)"}, "[4]": {"assay": "Tg2576 study: bioanalysis", "assay_type": "in vivo, mice", "excerpt": "At termination, animals were given a final dose, and under mild anesthesia, blood was collected retro-orbitally and separated plasma were utilized for bio analysis (G3) and ex vivo analysis. Then animals were euthanized under CO2 asphyxiation and brain tissue was collected and divided into two equal hemispheres. One hemisphere was fixed in 10% NBF for immunohistochemistry and from another hemisphere, dissected cortex and hippocampus was utilized for ex vivo analysis.\nAt the end of the experiment, animals in group G3 were dosed with the test compound, blood was collected under mild anesthesia, and separated plasma was utilized for drug bioanalysis by LC-MS/MS."}, "Tg2576 AD Disease Mice": {"test_system": "Tg2576 AD Disease Mice", "assay": "Tg2576 study: elevated plus maze", "assay_type": "in vivo", "conditions": "for Elevated Plus Maze time spent in Closed arms / Elevated Plus Maze time spent in Open arms: G3 Tg2576 mice", "procedure": "Mice were weighed and randomized into groups. All the test formulations were freshly administered to respective animals of each group as per body weight. Basal behavior of the animals was recorded and analyzed in open field, Y-Maze, and EPM. Post basal behavior, animals were treated with compound I-16 for the duration of 3 months (i.e., from 6 months until 9 months). During the treatment duration, animals were subjected to different behavioral tests such as OFT, Y-maze, and EPM at 7, 8 and 9 months. At the end of experiments (i.e., at 9 months) animals were subjected to Morris water maze test.\nAnimals were subjected to elevated plus maze to evaluate anxiety-like behavior. Animals were placed in the centre of the arena with two open and two closed arms facing towards closed arms and allowed to explore the arena for a duration of 5 minutes. Animal behavior was video recorded using overhead video recording camera. Total time spent in the closed and open arms were quantified using automated animal tracking software Ethovision XT."}, "[5]": {"conditions": "50 mg/kg then 80 mg/kg from day 36 p.o., 8th months"}, "[6]": {"conditions": "50 mg/kg then 80 mg/kg from day 36 p.o., 9th months"}, "[7]": {"conditions": "6th months (Basal, before treatment)"}}, "note": "“Also recorded” adds a separate entry of the source."}
{"smiles": "CC1CN(Cc2ccc(Nc3nccc(-c4ccc(C(=O)NO)cc4)n3)cc2F)CCO1", "note": "(racemic) [Compound I-8, 4-(2-((3-fluoro-4-((2-methylmorpholino)methyl)phenyl)amino)pyrimidin-4-yl)-N-hydroxybenzamide]", "values": [{"measurement": "IC50", "setting": "HDAC2", "value": 2.8, "unit": "µM"}, {"measurement": "IC50", "setting": "HDAC1", "value": 1.18, "unit": "µM"}, {"measurement": "IC50", "setting": "HDAC5", "value": 7.77, "unit": "µM"}, {"measurement": "IC50", "setting": "HDAC11", "value": 0.416, "unit": "µM"}, {"measurement": "IC50", "setting": "HDAC3", "value": 0.99, "unit": "µM"}, {"measurement": "mortality", "setting": "[1]", "value": "two mortalities"}, {"measurement": "Rotarod Test latency to fall", "setting": "[2]; G3 15 mg/kg p.o. QD, Week 10", "value": "137.59 ± 15.62", "unit": "s"}, {"measurement": "Rotarod Test latency to fall", "setting": "[2]; G3 15 mg/kg p.o. QD, Week 12", "value": "119.19 ± 18.07", "unit": "s"}, {"measurement": "Rotarod Test latency to fall", "setting": "[2]; G3 15 mg/kg p.o. QD, Week 14", "value": "88.63 ± 10.57", "unit": "s"}, {"measurement": "Rotarod Test latency to fall", "setting": "[2]; G3 15 mg/kg p.o. QD, Week 16", "value": "34.04 ± 12.74", "unit": "s"}, {"measurement": "Rotarod Test latency to fall", "setting": "[2]; G4 30 mg/kg (50 mg/kg from day 34) p.o. QD, Week 10", "value": "140 ± 13.47", "unit": "s"}, {"measurement": "Rotarod Test latency to fall", "setting": "[2]; G4 30 mg/kg (50 mg/kg from day 34) p.o. QD, Week 12", "value": "120.58 ± 13.17", "unit": "s"}, {"measurement": "Rotarod Test latency to fall", "setting": "[2]; G4 30 mg/kg (50 mg/kg from day 34) p.o. QD, Week 14", "value": "86 ± 16.17", "unit": "s"}, {"measurement": "Rotarod Test latency to fall", "setting": "[2]; G4 30 mg/kg (50 mg/kg from day 34) p.o. QD, Week 16", "value": "39.79 ± 20.43", "unit": "s"}, {"measurement": "acetylation of α-tubulin (Western blot)", "setting": "[3]", "value": "induce acetylation of α-tubulin in SH-SY5Y neuroblastoma cells in a dose-dependent manner; also recorded: induces acetylation α-tubulin"}]}
{"smiles": "C[C@@H]1CN(Cc2ccc(Nc3nccc(-c4ccc(C(=O)NO)cc4)n3)cc2F)CCO1", "note": "[Compound I-16, (R)-4-(2-((3-fluoro-4-((2-methylmorpholino)methyl)phenyl)amino)pyrimidin-4-yl)-N-hydroxybenzamide]", "values": [{"measurement": "Brain Conc (ng/mL)", "setting": "[4]; G3 Tg2576 mice, end of experiment, 9 hr post dose", "value": "No Peak"}, {"measurement": "plasma concentration time course", "setting": "[4]; G3 mice bled at different time points after the water maze test", "value": "time course dependent decrease"}, {"measurement": "concentration at 2 h", "setting": "[4]; male, mouse, plasma, oral, G3 Tg2576 mice, end of experiment, 2 hr post dose, read-out: Plasma Concentrations", "value": "0.106 ± 0.0138", "unit": "µg/mL"}, {"measurement": "concentration at 4 h", "setting": "[4]; male, mouse, plasma, oral, G3 Tg2576 mice, end of experiment, 4 hr post dose, read-out: Plasma Concentrations", "value": "0.0326 ± 0.00475", "unit": "µg/mL"}, {"measurement": "concentration at 6 h", "setting": "[4]; male, mouse, plasma, oral, G3 Tg2576 mice, end of experiment, 6 hr post dose, read-out: Plasma Concentrations", "value": "0.019 ± 0.00416", "unit": "µg/mL"}, {"measurement": "concentration at 8 h", "setting": "[4]; male, mouse, plasma, oral, G3 Tg2576 mice, end of experiment, 8 hr post dose, read-out: Plasma Concentrations", "value": "0.0121 ± 0.0021", "unit": "µg/mL"}, {"measurement": "Elevated Plus Maze: time spent in open and closed arms compared to G2 (Tg2576 + vehicle)", "setting": "Tg2576 AD Disease Mice; G3 Tg2576 AD disease mice, 50 mg/kg", "value": "did not show any significant difference"}, {"measurement": "Elevated Plus Maze time spent in Closed arms", "setting": "Tg2576 AD Disease Mice; 50 mg/kg p.o., 7th months", "value": "165.48 ± 28.89"}, {"measurement": "Elevated Plus Maze time spent in Open arms", "setting": "Tg2576 AD Disease Mice; 50 mg/kg p.o., 7th months", "value": "73.82 ± 27.58"}, {"measurement": "Elevated Plus Maze time spent in Closed arms", "setting": "Tg2576 AD Disease Mice; [5]", "value": "245.27 ± 12.41"}, {"measurement": "Elevated Plus Maze time spent in Open arms", "setting": "Tg2576 AD Disease Mice; [5]", "value": "54.73 ± 12.41"}, {"measurement": "Elevated Plus Maze time spent in Closed arms", "setting": "Tg2576 AD Disease Mice; [6]", "value": "241.46 ± 11.16"}, {"measurement": "Elevated Plus Maze time spent in Open arms", "setting": "Tg2576 AD Disease Mice; [6]", "value": "58.55 ± 11.16"}, {"measurement": "Elevated Plus Maze time spent in Closed arms", "setting": "Tg2576 AD Disease Mice; [7]", "value": "110.86 ± 16.69"}, {"measurement": "Elevated Plus Maze time spent in Open arms", "setting": "Tg2576 AD Disease Mice; [7]", "value": "82.94 ± 14.23"}]}
